Test system: NCI-N87 cells
Assay: Inhibition of proliferation of NCI-N87 cells (CCK-8)
Assay type: cell-based
Details: 72 hours, FIG. 14
Experimental: The growth curve of NCI-N87 was initially determined by plating cells at various densities in 96-well tissue culture plates. Cells were gown in RPMI-1640 medium supplemented with 10% fetal bovine serum (FBS).
24 hours later, 10 μl of antibody construct diluted to various concentrations with the medium were added to the cell culture. After the cells were cultured for additional 72 hours, the cell proliferation rates were determined by adding 10 μl of CCK-8 reagent (Sigma). After 3 hour of incubation without light, the plates were read at OD450 nm. The wells without addition of antibody were set as 100% cell viability and Docetaxel was used as a positive control for cytotoxicity. The data were then fitted into 4-parameter sigmoidal curve to generate IC50. The samples were done in triplicate.

**Q.** pertuzumab [T1, reference compound] was tested. Which growth inhibition did it give?
**A.** The growth inhibition was “minimal effect”.

**Q.** And the “growth inhibition effect compared with other antibodies” value?
**A.** Its value is “somewhat greater effect”.

**Q.** Which growth inhibition does the source give for “T51: Biparatopic Fab-Ig: Bip_mAb_HC11 (VH_Pert_T30A; VH_Tra_N54T/D98S) with Tra_LC_N30S_S56Y; Fc M428L” here?
**A.** The growth inhibition was “inhibited growth”.

**Q.** What about the “growth inhibition effect compared with other antibodies” value of the same substance?
**A.** The value was “had greater effect than pertuzumab (mAb T1) or trastuzumab (mAb T22)”.

**Q.** With “T52: Biparatopic Fab-Ig: Bip_mAb_HC12 (VH_Pert_T30A/G56A; VH_Tra_N54T/D98S) with Tra_LC_N30S_S56Y” as the substance, how does the growth inhibition read?
**A.** The growth inhibition was “inhibited growth”.

**Q.** What about the “growth inhibition effect compared with other antibodies” value of the same substance?
**A.** The value was “had greater effect than pertuzumab (mAb T1) or trastuzumab (mAb T22)”.

**Q.** What does the source list for “T54: Biparatopic knob/hole heterodimer: HC14 (pert T30A) and HC15 (Tra N54T/D98S) with Tra_LC_N30S_S56Y”?
**A.** growth inhibition: inhibited growth; growth inhibition effect compared with other antibodies: had greater effect than pertuzumab (mAb T1) or trastuzumab (mAb T22)
